Data on six compounds can be found in article PMC8708455, “Trans-ε-Viniferin Encapsulation in Multi-Lamellar Liposomes: Consequences on Pharmacokinetic Parameters, Biodistribution and Glucuronide Formation in Rats” (Nutrients, 2021).

Several values for one entry are separate records, joined by “and”; a condition that tells them apart may be missing. Identical values can stand only once. Like-named read-outs stand apart in the source and are kept apart here.

Data set [1] can be described thus: Pharmacokinetic study: plasma kinetics after oral administration of free or encapsulated εVin. It counts as in vivo, rats. As to conditions: for occurrence of metabolites after oral administration: rats, both administration forms, data not shown; for k el: read-out: Lambda z (converted); for MRT: read-out: MRT (mean residence time) (converted); for half-life: read-out: T½; for AUC0-t: 0-4 h. How it is done:
(§1) Experiments were conducted in accordance with Directive 2010/63/EU [51] and approved by the Bordeaux University Institutional Ethics Committee for Animal Research (IEC-AR CEEA 50, MESR approval A18380). Male Wistar rats (Janvier-LABS, Saint Berthevin, France) were maintained in controlled conditions: 12 h light/12 h dark cycle, humidity 50–60% and an ambient temperature of 24 ± 1 °C (animal facility agreement number: B33-063-917). Free access to food and water was allowed up to 16 h before experiments started. Rats were randomly divided into two groups. Group A (n = 5, average weight = 307.8 ± 7.7 g) received εVin dissolved in propylene glycol (5.25 mg/mL), while group B (n = 6, average weight = 308 ± 10.7 g) received the same dose of εVin but encapsulated in MLLs and suspended in ultra-pure water. Both solutions were administrated by oral gavage and precisely measured to reach a dose of 20 mg/kg bw of εVin. Blood was collected through the tail vein, making a slanting incision during the first collection. Rats were slightly anesthetized by isoflurane before every blood sample collection (600 µL) at the following time points: 20, 40, 60, 100, 140, 180 and 210 min after gavage. They were sacrificed at 240 min by a high dose of isoflurane and rapid exsanguination with saline solution injected in the right ventricular cardiac cavity with a peristaltic pump (10 mL/min). All blood samples were collected in heparinized tubes and centrifuged (10,000× g, 10 min) before sampling plasma. The liver, kidneys and four white adipose tissues (epididymal, retroperitoneal, mesenteric and subcutaneous) were removed, weighed and immediately immersed in liquid nitrogen. All blood and tissues samples were kept at −80 °C until analysis.
(§2) Extractions were performed as previously described with some modifications to improve quantification. For plasma extraction, 360 µL of methanol (4 °C) were added to an aliquot of 120 µL of plasma. The sample was vortexed during three minutes before centrifugation (30 min, 12,000× g, 4 °C). The supernatant (380 µL) was removed and evaporated using a SpeedVac concentrator (Labconco CentriVap, Thermo Fisher Scientific, Waltham, MA, USA). Residue was kept in −80 °C before analysis. For tissues extraction, tissues (about 0.5 g) were first cut with scalpels before being mixed with 4 mL of methanol:water (80:20, v:v). Samples were homogenized with an Ultra-Turrax homogenizer (IKA, Staufen, Deutschland) before being intensely vortexed. Then, samples were centrifuged 20 min at 10,000× g and 4 °C before sampling 3 mL of supernatant. All supernatants were evaporated using a SpeedVac concentrator and kept at −80 °C. Residues were reconstituted in 60 µL and 250 µL of methanol:water (50:50, v:v) or plasma and tissue, respectively. They were vortexed intensely and centrifuged at 12,000× g during 30 min at 4 °C before being injected the supernatant in LC-HRMS.
(§3) The quantification of εVin and the total of glucuronides (εVG) in plasma and tissues was performed as previously described with some modifications concerning the mass parameters. The U-HPLC separation was carried out with a Vanquish Flex system (Thermo Fisher Scientific, Les Ulis, France) consisting in a binary pump, an autosampler and a heated column compartment. The liquid chromatography separation was performed as previously detailed using C18 column (BEH C18 2.1 mm × 100 mm, 1.7 µm particle size, Waters, Guyancourt, France). The flow rate was set as 450 µL/min. The injection volume was 5 µL and the eluents were 0.1% formic acid in water for A and 0.1% formic acid in acetonitrile for B. The eluent B varied as follows: 0 min, 25%; 0.5 min, 25%; 3.6 min, 50%; 3.9 min, 50%; 4 min, 100%; 5.7 min, 100%; 5.8 min, 25%; 7 min, 25%. The column and sample temperature were 30 °C and 20 °C, respectively. The Exactive benchtrop Orbitrap mass spectrometer equipped with a HESI probe (both from Thermo Fisher Scientific, Bremen, Germany) was used. […]

Details of data set [2]: method as in PMID 27175336. As to conditions: rats, oral 70 mg/kg bw, after hydrolysis with glucuronidase; cited from earlier work.
Data set [3] can be described thus: Quantification in plasma, liver, kidneys and white adipose tissues 4 h after oral administration. It counts as in vivo. As to conditions: rats, 4 h after oral 20 mg/kg bw εVin. The protocol:
as §1, §2, §3

On the set-up of data set [4]: method as in PMID 27902942. As to conditions: mice, oral 40 mg/kg bw; cited from earlier work.
The nature of data set [5]: Literature pharmacokinetics of εVin after oral administration in mice (Kim et al.). It counts as in vivo. As to conditions: oral 40 mg/kg bw (ref 31) versus 20 mg/kg bw in this study.
Details of data set [6]: method as in PMID 30400351. As to conditions: rats, intraperitoneal injection, cited from earlier work; for Cmax: metabolites expressed as equivalent of the native form.
The mark [7] stands for this setting: male, Wistar, rat, plasma, po, 20 mg/kg, rat plasma, oral 20 mg/kg bw εVin, encapsulated form (MLLs).
[8] abbreviates: male, Wistar, rat, plasma, po, 20 mg/kg, rat plasma, oral 20 mg/kg bw εVin, free form.
Setting [9] is: rat plasma, oral 20 mg/kg bw εVin, encapsulated form (MLLs).
Setting [10] is: rat plasma, oral 20 mg/kg bw εVin, free form.
The mark [11] stands for this setting: rat plasma, oral 20 mg/kg bw εVin, free form, 20 mg/kg.

Turning to `O=C(O)C1OC(Oc2ccc(C3Oc4cc(O)cc(C=Cc5ccc(O)cc5)c4C3c3cc(O)cc(O)c3)cc2)C(O)C(O)C1O` (stereo not drawn) [V1G], the “occurrence of metabolites after oral administration” value in data set [1] was “traces”.
On the same count and under the same terms, for `O=C(O)[C@H]1O[C@@H](Oc2cc(/C=C/c3ccc(O)cc3)c3c(c2)O[C@H](c2ccc(O)cc2)[C@H]3c2cc(O)cc(O)c2)[C@H](O)[C@@H](O)[C@@H]1O` [V2G] the value was “largely in majority”; for `O=C(O)C1OC(Oc2ccc(C=Cc3cc(O)cc4c3C(c3cc(O)cc(O)c3)C(c3ccc(O)cc3)O4)cc2)C(O)C(O)C1O` (stereo not drawn) [V4G], “traces”.
Regarding `Oc1ccc([C@H]2Oc3ccc(/C=C/c4cc(O)cc(O)c4)cc3[C@@H]2c2cc(O)cc(O)c2)cc1` [δ-viniferin], the “concentration of glucuronide metabolites relative to the native form” value in data set [2] is listed as “up to 7 fold”.
For `Oc1ccc(/C=C/c2cc(O)cc3c2[C@@H](c2cc(O)cc(O)c2)[C@H](c2ccc(O)cc2)O3)cc1` [εVin, Trans-ε-viniferin], in data set [3] (free form), the concentration in kidneys is reported as ≤ 10 pmol/g of tissue, the concentration in liver is recorded as ≤ 10 pmol/g of tissue, the “concentration in mesenteric adipose tissue” value is on record as 92 ± 84 pmol/g of tissue and the “concentration in subcutaneous adipose tissue” value is 23 ± 12 pmol/g of tissue. Besides, in data set [3] (free form), the “concentration in the three other adipose depots (epididymal, retroperitoneal, subcutaneous)” value was “around 20 pmol/g of tissue”. For the same compound, in data set [1] (setting [7]), the peak concentration (Cmax) is 11.7 ± 7.3 nM, the k el is 0.000137 s⁻¹, the mean residence time (MRT) was 3.27 h and the half-life turned out to be 1.91 ± 1.34 h. Also, in data set [1] (male, Wistar, rat, plasma, po, 20 mg/kg, rat plasma, oral 20 mg/kg bw εVin, encapsulated form (MLLs), read-out: Tmax (converted)), the Tmax was 0.333 h. Besides, in data set [1] (setting [8]), the highest level (Cmax) was 15 ± 11 nM, the k el was 0.000345 s⁻¹, the MRT was 2.12 h and the half-life was found to be 0.917 ± 0.565 h. For the same compound, the Tmax in data set [1] (male, Wistar, rat, plasma, po, 20 mg/kg, rat plasma, oral 20 mg/kg bw εVin, free form, read-out: Tmax (converted)) is 1 h. In addition, in data set [1] (setting [9]), the “AUC0–∞” value turned out to be 1660.1 ± 1313.1 pmol/mL/min and the AUC0-t is 1009.8 ± 328.3 pmol/mL/min. In addition, in data set [1] (setting [10]), the “AUC0–∞” value was 1919.7 ± 955.2 pmol/mL/min and the AUC0-t is given as 1689.1 ± 682.0 pmol/mL/min. In addition, in data set [1] (setting [11]), the Cmax stood at 15.3 ± 10.5 nM. In data set [4], the bioavailability was 0.77% and the “maximal concentration (Cmax)” value was 42 ng/mL. Moreover, the “AUC0-∞ of the literature study relative to the values of this study” value in data set [5] came out at 3.6 times. Moreover, the Cmax in data set [6] was 3090 ng/mL.
As for Trans-ε-viniferin-glucuronide [εVG], in data set [3] (encapsulated form), the concentration in kidneys is 114 ± 12 pmol/g of tissue, the concentration in liver is listed as 1206 ± 304 pmol/g of tissue, the “concentration in mesenteric adipose tissue” value is reported as 213 ± 81 pmol/g of tissue and the “concentration in plasma at 4 h” value is 700 ± 175 nM. For the same compound, in data set [3] (free form), the concentration in kidneys is given as 76 ± 39 pmol/g of tissue, the “concentration in kidneys relative to the native molecule” value turned out to be 14 times, the concentration in liver is 604 ± 320 pmol/g of tissue and the “concentration in liver relative to the native molecule” value worked out at 60 times. Besides, in data set [3] (free form), the “concentration in mesenteric adipose tissue” value is 108 ± 75 pmol/g of tissue, the “concentration in plasma at 4 h” value worked out at 317 ± 186 nM and the “concentration in subcutaneous adipose tissue” value is listed as 105 ± 83 pmol/g of tissue. For the same compound, the “increase of T1/2 by the encapsulation procedure” value in data set [1] (rat plasma, encapsulated versus free form, p < 0.05) is listed as roughly 3 times. Further, in data set [1] (setting [9]), the “AUC0–∞” value is recorded as 432,315.4 ± 106,406.4 pmol/mL/min, the Cmax was found to be 1750 ± 876 nM, the Lambda z is reported as 0.0074 ± 0.0036 * min^−1 and the time to peak (Tmax) turned out to be 1.67 h. In addition, the AUC0-t in data set [1] (setting [9]) is on record as 307,086.4 ± 316,383.9 pmol/mL/min. Besides, the T½ in data set [1] (rat plasma, oral 20 mg/kg bw εVin, encapsulated form (MLLs), 20 mg/kg) came to 1.98 ± 1.08 h. Moreover, in data set [1] (setting [10]), the “AUC0–∞” value is 264,191.0 ± 123,786.4 pmol/mL/min, the highest level (Cmax) was 1670 ± 1100 nM, the Lambda z is 0.0198 ± 0.0056 min⁻¹ and the “MRT (mean residence time)” value was 2.062 ± 0.2 h. For the same compound, in data set [1] (setting [10]), the Tmax was determined as 1.67 h and the AUC0-t is given as 245,827.3 ± 114,219.8 pmol/mL/min. Besides, in data set [1] (setting [11]), the T½ is 0.633 ± 0.183 h and 0.637 ± 0.187 h. For the same compound, in data set [1] (rat plasma, oral 20 mg/kg bw εVin, free form, listed as glucuronide forms, 20 mg/kg), the “maximal plasma concentration of glucuronides relative to the aglycone (native) form” value was “more than 100 times”. In data set [1] (rat plasma, oral 20 mg/kg bw εVin, free form, listed as total glucuronides, 20 mg/kg), the “maximal plasma concentration of glucuronides relative to the aglycone (native) form” value worked out at 108 times. In data set [6], the Cmax was 5160 ng/mL and the Tmax was 1 h.
